# Measurements as given in patent US9255257B2, “PmST1 mutants for chemoenzymatic synthesis of sialyl lewis X compounds” (THE REGENTS OF THE UNIVERSITY OF CALIFORNIA, priority 2011, dated 2016).
# Experiments:
# [1] = molecular target: Pasteurella multocida PmST1 mutant R313Y of SEQ ID NO: 13 (R289Y of Δ24PmST1, SEQ ID NO: 9) (Pasteurella multocida, UniProt Q15KI8, R313Y); assay: α2-3-sialyltransferase activity, LacβMU as acceptor; assay type: biochemical; settings: apparent, donor, LacβMU 1 mM, Tris-HCl pH 8.5, 37° C.
# Method: (§1) To obtain the apparent kinetic parameters of LacβMU as the acceptor for the α2-3-sialyltransferase activity, the kinetic assays were performed in duplicate in reaction mixtures of 10 μL containing Tris-HCl buffer (100 mM, pH 8.5), a fixed concentration of CMP-Neu5Ac (1 mM), different concentrations of LacβMU (0.2, 0.5, 1.0, 2.0, 5.0, and 9.0 mM) and the mutant proteins (2 μg mL^−1 of E271F, 2 μg mL^−1 of R313Y, and 1.6 μg mL^−1 of E271F/R313Y). All reactions were allowed to proceed at 37° C. for 5 min (E271F), 7 min (R313Y), and 10 min (E271F/R313Y). The apparent kinetic parameters were obtained by fitting the experimental data (the average values of duplicate assay results) into the Michaelis-Menten equation using Grafit 5.0.
# (§2) To obtain the apparent kinetic parameters of CMP-Neu5Ac as the donor for the α2-3-sialyltransferase activity, the kinetic assays were performed in duplicate in reaction mixtures of 10 μL containing Tris-HCl buffer (100 mM, pH 8.5), a fixed concentration of LacβMU (1 mM), different concentrations of CMP-Neu5Ac (0.1, 0.2, 0.5, 1.0, 2.0, 5.0, 10.0 and 20.0 mM) and the mutant proteins (2 μg mL^−1 of E271F, 2 μg mL^−1 of R313Y, and 1.6 μg mL^−1 of E271F/R313Y). All reactions were allowed to proceed at 37° C. for 2 min (E271F), 7 min (R313Y), and 5 min (E271F/R313Y). The apparent kinetic parameters were obtained by fitting the experimental data (the average values of duplicate assay results) into the Michaelis-Menten equation using Grafit 5.0.
# (§3) All the sialidase and α2-3-sialyltransferase assays were performed in an HPLC system. Reactions were stopped by adding 10 μL of ethanol. After necessary dilutions were performed to adjust the concentrations of the fluorescent-labeled compounds, the samples were then kept on ice until aliquots of 8 μL were injected and analyzed by a Shimadzu LC-6AD system equipped with a membrane on-line degasser, a temperature control unit, and a fluorescence detector (Shimadzu RF-10AXL). A reverse-phase Premier C18 column (250×4.6 mm i.d., 5 μm particle size, Shimadzu) protected with a C18 guard column cartridge was used. The mobile phase was 25% acetonitrile. The fluorescent compounds LacβMU and Neu5Acα2-3LacβMU were detected by excitation at 325 nm and emission at 372 nm.
# [2] = molecular target: Pasteurella multocida PmST1 mutant E271F of SEQ ID NO: 13 (E247F of Δ24PmST1, SEQ ID NO: 7) (Pasteurella multocida, UniProt Q15KI8, E271F); assay: as above; assay type: biochemical; settings: apparent, donor, LacβMU 1 mM, Tris-HCl pH 8.5, 37° C.
# Method: as §1, §2, §3
# [3] = molecular target: Pasteurella multocida PmST1 double mutant E271F/R313Y of SEQ ID NO: 13 (E247F/R289Y of Δ24PmST1, SEQ ID NO: 11) (Pasteurella multocida, UniProt Q15KI8, E271F/R313Y); assay: as above; assay type: biochemical; settings: apparent, donor, LacβMU 1 mM, Tris-HCl pH 8.5, 37° C.
# Method: as §1, §2, §3
# [4] = molecular target: Pasteurella multocida PmST1 mutant H311A (Pasteurella multocida, UniProt Q15KI8, H311A); assay: CMP-Neu5Ac (donor) hydrolysis activity, capillary electrophoresis; settings: apparent, Tris-HCl pH 8.5, 37° C., 20 min
# Method: The reactions were stopped by adding 10 μL of pre-chilled ethanol. The mixtures were incubated on ice for 30 min and centrifuged at 13,000 rpm for 5 min. The supernatants were diluted with borate buffer (25 mM, pH 9.5) and aliquotes of 5 μL each were injected to a Beckman Coulter P/ACE™ MDQ Capillary Electrophoresis system equipped with a capillary (60 cm×75 μm i.d.) and monitored at 254 nm. The apparent kinetic parameters were obtained by fitting the experimental data (the average values of duplicate assay results) into the Michaelis-Menten equation using Grafit 5.0.
compound,measurement,setting,value
CC(=O)N[C@H]1[C@H]([C@H](O)[C@H](O)CO)O[C@](OP(=O)(O)OC[C@H]2O[C@@H](n3ccc(N)nc3=O)[C@H](O)[C@@H]2O)(C(=O)O)C[C@@H]1O [CMP-Neu5Ac],kcat (CMP-Neu5Ac),[1],19 ± 1 s⁻¹
same,kcat (CMP-Neu5Ac),[2],26 ± 1 s⁻¹
same,kcat (CMP-Neu5Ac),[3],23 ± 1 s⁻¹
same,kcat,[4],2.1 ± 0.1 s⁻¹
